Target: ROCK2 (Homo sapiens (Human), UniProt O75116)
Experiment: ROCK2 assay (peptide phosphorylation, LABCHIP 3000 Reader)
Assay type: biochemical
Details: 5 μM ATP, 1.5 μM peptide substrate, dose-response
Procedure: After incubation, the reaction was terminated by the addition of EDTA and the phosphorylated and non-phosphorylated peptides separated using a LABCHIP®3000 Reader (Caliper Life Sciences). […] Compounds were tested in dose-response format, and the inhibition of kinase activity was calculated at each concentration of compound. […] Representative Examples were tested in the ROCK2 assay described above and found having ROCK2 inhibitory activity.

ROCK2, sequence (O75116 whole entry, species assumed): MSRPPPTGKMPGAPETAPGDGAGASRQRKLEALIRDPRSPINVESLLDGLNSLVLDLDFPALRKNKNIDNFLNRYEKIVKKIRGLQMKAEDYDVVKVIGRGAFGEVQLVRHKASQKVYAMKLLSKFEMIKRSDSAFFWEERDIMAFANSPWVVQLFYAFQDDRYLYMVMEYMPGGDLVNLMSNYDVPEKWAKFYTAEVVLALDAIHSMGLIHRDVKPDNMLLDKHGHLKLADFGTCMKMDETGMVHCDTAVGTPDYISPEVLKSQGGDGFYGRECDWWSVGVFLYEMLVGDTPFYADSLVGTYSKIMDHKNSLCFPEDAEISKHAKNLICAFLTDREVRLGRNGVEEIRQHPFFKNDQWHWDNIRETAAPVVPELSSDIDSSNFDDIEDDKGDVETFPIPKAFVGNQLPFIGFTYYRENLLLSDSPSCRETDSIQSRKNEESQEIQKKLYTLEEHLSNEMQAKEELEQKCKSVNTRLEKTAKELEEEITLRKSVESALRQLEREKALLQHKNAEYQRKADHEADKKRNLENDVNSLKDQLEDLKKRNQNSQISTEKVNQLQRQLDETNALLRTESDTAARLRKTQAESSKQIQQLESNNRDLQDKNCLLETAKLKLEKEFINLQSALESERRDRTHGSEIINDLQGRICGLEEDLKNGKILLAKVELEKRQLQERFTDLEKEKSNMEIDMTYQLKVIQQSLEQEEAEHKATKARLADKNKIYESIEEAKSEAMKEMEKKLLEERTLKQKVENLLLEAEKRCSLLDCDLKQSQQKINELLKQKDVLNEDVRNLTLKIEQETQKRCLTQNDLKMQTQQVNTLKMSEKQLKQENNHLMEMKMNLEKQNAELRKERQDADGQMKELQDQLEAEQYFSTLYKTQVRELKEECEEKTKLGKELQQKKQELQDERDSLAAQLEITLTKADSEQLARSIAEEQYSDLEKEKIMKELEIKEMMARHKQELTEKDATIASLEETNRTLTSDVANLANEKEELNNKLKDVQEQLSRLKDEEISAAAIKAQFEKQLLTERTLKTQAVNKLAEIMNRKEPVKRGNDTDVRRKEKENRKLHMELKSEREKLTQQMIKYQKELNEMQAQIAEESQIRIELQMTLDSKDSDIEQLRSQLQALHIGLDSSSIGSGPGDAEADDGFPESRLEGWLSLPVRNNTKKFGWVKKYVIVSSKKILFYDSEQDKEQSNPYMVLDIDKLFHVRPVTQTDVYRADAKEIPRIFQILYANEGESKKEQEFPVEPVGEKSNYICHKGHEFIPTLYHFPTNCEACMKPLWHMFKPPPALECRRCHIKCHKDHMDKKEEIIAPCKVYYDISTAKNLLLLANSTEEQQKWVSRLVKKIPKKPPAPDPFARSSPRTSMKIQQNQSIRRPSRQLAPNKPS

Structure (SMILES) | IC50
CC(C)(O)COc1ccc2c(C(=O)N[C@H]3CC4(C3)C[C@H](Oc3c(C(N)=O)cnn3CCCN)C4)cnn2c1C1CC1 (stereo partly drawn) [Example 28, 1-(3-aminopropyl)-5-({(aR)-6-[7-cyclopropyl-6-(2-hydroxy-2-methylpropoxy)pyrazolo [1,5-a]pyridine-3-amido]spiro[3.3]heptan-2-yl}oxy)-1H-pyrazole-4-carboxamide] | 551 nM
CC(C)(O)COc1ccc2c(C(=O)N[C@H]3C[C@]4(C3)C[C@H](Oc3nn(CCN)cc3C(N)=O)C4)cnn2c1C1CC1 (stereo partly drawn) [Example 29, 1-(2-aminoethyl)-3-({(aR)-6-[7-cyclopropyl-6-(2-hydroxy-2-methylpropoxy)pyrazolo [1,5-a]pyridine-3-amido]spiro[3.3]heptan-2-yl}oxy)-1H-pyrazole-4-carboxamide] | 254 nM
Cn1cc(C(N)=O)c(O[C@H]2C[C@@]3(C[C@H](NC(=O)c4cnn5cc(N6CC7(COC7)C6)ccc45)C3)C2)n1 (stereo partly drawn) [Example 33, 1-methyl-3-{[(aR)-6-(6-{2-oxa-6-azaspiro[3.3]heptan-6-yl}pyrazolo[1,5-a]pyridine-3-amido)spiro[3.3]heptan-2-yl]oxy}-1H-pyrazole-4-carboxamide] | 347 nM
CN1CCN(c2ccc3c(C(=O)N[C@H]4C[C@]5(C4)C[C@H](Oc4nn(C)cc4C(N)=O)C5)cnn3c2)CC1 (stereo partly drawn) [Example 35, 1-methyl-3-({(aR)-6-[6-(4-methylpiperazin-1-yl)pyrazolo[1,5-a]pyridine-3-amido]spiro[3.3]heptan-2-yl}oxy)-1H-pyrazole-4-carboxamide] | 202 nM
Cn1cc(C(N)=O)c(O[C@H]2C[C@@]3(C[C@H](NC(=O)c4nn(C(F)F)c5cc(OCC(C)(C)O)ccc45)C3)C2)n1 (stereo partly drawn) [Example 36, N-{(aR)-6-[(4-carbamoyl-1-methyl-1H-pyrazol-3-yl)oxy]spiro[3.3]heptan-2-yl}-1-(difluoromethyl)-6-(2-hydroxy-2-methylpropoxy)-1H-indazole-3-carboxamide] | 22.4 nM

Continued, values first:

IC50 | Structure (SMILES)
13.8 nM | CC(C)(O)COc1ccc2c(C(=O)N[C@H]3C[C@]4(C3)C[C@H](Oc3nn(CCCN)cc3C(N)=O)C4)cnn2c1C1CC1 (stereo partly drawn) [Example 27, 1-(3-aminopropyl)-3-({(aR)-6-[7-cyclopropyl-6-(2-hydroxy-2-methylpropoxy)pyrazolo [1,5-a]pyridine-3-amido]spiro[3.3]heptan-2-yl}oxy)-1H-pyrazole-4-carboxamide]
7.7 nM | CC(C)(O)COc1ccc2c(C(=O)N[C@H]3C[C@]4(C3)C[C@H](Oc3nn(C(F)F)cc3C(N)=O)C4)cnn2c1C1CC1 (stereo partly drawn) [Example 30, 3-({(aR)-6-[7-cyclopropyl-6-(2-hydroxy-2-methylpropoxy)pyrazolo [1,5-a]pyridine-3-aimdo]spiro[3.3]heptan-2-yl}oxy)-1-(difluoromethyl)-1H-pyrazole-4-carboxamide]
73.3 nM | CC(C)(O)COc1ccc2c(C(=O)N[C@H]3C[C@]4(C3)C[C@H](Oc3nn(-c5ccccc5C#N)cc3C(N)=O)C4)cnn2c1C1CC1 (stereo partly drawn) [Example 31, 1-(2-cyanophenyl)-3-({(aR)-6-[7-cyclopropyl-6-(2-hydroxy-2-methylpropoxy)pyrazolo [1,5-a]pyridine-3-amido]spiro[3.3]heptan-2-yl}oxy)-1H-pyrazole-4-carboxamide]
29.9 nM | Cn1cc(C(N)=O)c(O[C@H]2C[C@@]3(C[C@H](NC(=O)c4cnn5cc(N6CCOCC6)ccc45)C3)C2)n1 (stereo partly drawn) [Example 32, 1-methyl-3-({(aR)-6-[6-(morpholin-4-yl)pyrazolo[1,5-a]pyridine-3-amido]spiro[3.3]heptan-2-yl}oxy)-1H-pyrazole-4-carboxamide]
17.2 nM | Cc1nc(O[C@H]2C[C@@]3(C[C@H](NC(=O)c4cnn5cc(N6CC(CO)(CCl)C6)ccc45)C3)C2)c(C(N)=O)s1 (stereo partly drawn) [Example 34, 4-[((aR)-6-{6-[3-(chloromethyl)-3-(hydroxymethyl)azetidin-1-yl]pyrazolo[1,5-a]pyridine-3-amido}spiro[3.3]heptan-2-yl)oxy]-2-methyl-1,3-thiazole-5-carboxamide]
